Laboratory results as given in ChEMBL document CHEMBL4368931, “Discovery of novel thienoquinoline-2-carboxamide chalcone derivatives as antiproliferative EGFR tyrosine kinase inhibitors” (Bioorg Med Chem, 2019).
pIC50: −log10 of the molar value.

Assays:
PANC-1 = assay: Antiproliferative activity against human PANC1 cells after 48 hrs by propidium iodide fluorescence assay; assay type: functional, cell-based; conditions: PANC-1, 48 h
NCI-H460 [1] = assay: Antiproliferative activity against human NCI-H460 cells after 48 hrs by propidium iodide fluorescence assay; assay type: functional, cell-based; conditions: NCI-H460, 48 h
HT-29 = assay: Antiproliferative activity against human HT-29 cells after 48 hrs by propidium iodide fluorescence assay; assay type: functional, cell-based; conditions: HT-29, 48 h
MIA PaCa-2 = assay: Antiproliferative activity against human MIAPaCa2 cells after 48 hrs by propidium iodide fluorescence assay; assay type: functional, cell-based; conditions: MIA PaCa-2, 48 h
[2] = Cytotoxicity in human MCF10A cells assessed as cell viability incubated for 4 days by MTT assay; assay type: cell-based, MCF-10A; set-up: concentration or dose not given beside the values; conditions: read-out: Activity
A-375 = assay: Antiproliferative activity against human A375 cells after 48 hrs by propidium iodide fluorescence assay; assay type: functional, cell-based; conditions: A-375, 48 h
[3] = biological target: Epidermal growth factor receptor (Homo sapiens, UniProt P00533); assay: Inhibition of His6-tagged EGFR cytoplasmic domain (645 to 1186 residues) (unknown origin) expressed in baculovirus infected Sf9 insect cells after 10 mins by DELFIA/time-resolved fluorometry
Sequence of Epidermal growth factor receptor (P00533 whole entry, the tested form may be a part): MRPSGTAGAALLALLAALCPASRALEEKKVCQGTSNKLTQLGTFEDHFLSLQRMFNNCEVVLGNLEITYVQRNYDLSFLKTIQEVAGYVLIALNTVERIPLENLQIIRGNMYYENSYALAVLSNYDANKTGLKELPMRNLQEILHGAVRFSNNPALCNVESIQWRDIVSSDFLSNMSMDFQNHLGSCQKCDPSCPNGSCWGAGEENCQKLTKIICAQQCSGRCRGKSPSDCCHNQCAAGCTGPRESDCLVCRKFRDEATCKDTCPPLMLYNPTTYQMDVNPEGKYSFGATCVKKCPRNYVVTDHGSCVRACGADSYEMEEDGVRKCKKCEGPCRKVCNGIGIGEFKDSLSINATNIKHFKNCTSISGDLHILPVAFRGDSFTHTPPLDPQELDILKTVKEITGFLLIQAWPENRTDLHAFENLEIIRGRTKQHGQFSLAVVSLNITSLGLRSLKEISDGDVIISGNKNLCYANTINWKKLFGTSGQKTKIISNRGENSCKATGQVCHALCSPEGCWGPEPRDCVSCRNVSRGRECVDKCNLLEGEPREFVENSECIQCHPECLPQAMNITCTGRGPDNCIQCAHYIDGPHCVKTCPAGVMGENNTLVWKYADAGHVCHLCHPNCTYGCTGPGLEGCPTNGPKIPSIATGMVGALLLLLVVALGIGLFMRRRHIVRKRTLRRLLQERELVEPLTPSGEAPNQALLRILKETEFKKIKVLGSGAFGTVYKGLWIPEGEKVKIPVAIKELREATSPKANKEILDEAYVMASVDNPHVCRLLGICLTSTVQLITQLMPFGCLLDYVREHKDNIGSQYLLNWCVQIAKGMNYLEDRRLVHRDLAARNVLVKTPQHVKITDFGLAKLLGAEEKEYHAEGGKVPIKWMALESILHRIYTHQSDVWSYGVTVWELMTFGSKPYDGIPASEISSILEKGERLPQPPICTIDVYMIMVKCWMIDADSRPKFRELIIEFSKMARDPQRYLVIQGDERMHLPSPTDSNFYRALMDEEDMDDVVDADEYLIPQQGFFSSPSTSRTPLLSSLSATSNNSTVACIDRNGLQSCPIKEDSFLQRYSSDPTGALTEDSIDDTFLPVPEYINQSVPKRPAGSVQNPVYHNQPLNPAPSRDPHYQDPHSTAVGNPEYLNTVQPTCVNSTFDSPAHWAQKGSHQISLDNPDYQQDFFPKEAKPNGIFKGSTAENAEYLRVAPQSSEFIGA

NCI-H460 [4] = assay: Cell cycle arrest in human NCI-H460 cells assessed as accumulation of cells at G1 phase at 0.2 uM after 24 hrs by propidium iodide staining-based flow cytometric analysis (reference value: 47.39%); assay type: functional
NCI-H460 [5] = assay: Cell cycle arrest in human NCI-H460 cells assessed as apoptotic cells at 0.2 uM after 24 hrs by propidium iodide staining-based flow cytometric analysis (reference value: 1.55%); assay type: functional
NCI-H460 [6] = assay: Cell cycle arrest in human NCI-H460 cells assessed as accumulation of cells at G2 phase at 0.2 uM after 24 hrs by propidium iodide staining-based flow cytometric analysis (reference value: 10%); assay type: functional
NCI-H460 [7] = assay: Induction of apoptosis in human NCI-H460 cells assessed as early apoptotic cells at 0.2 uM after 24 hrs by Annexin V-FITC/propidium iodide staining-based flow cytometric analysis relative to control; assay type: functional
NCI-H460 [8] = assay: Cell cycle arrest in human NCI-H460 cells assessed as accumulation of cells at S phase at 0.2 uM after 24 hrs by propidium iodide staining-based flow cytometric analysis (reference value: 42.61%); assay type: functional
NCI-H460 [9] = assay: Induction of apoptosis in human NCI-H460 cells assessed as late apoptotic cells at 0.2 uM after 24 hrs by Annexin V-FITC/propidium iodide staining-based flow cytometric analysis relative to control; assay type: functional
NCI-H460 [10] = assay: Induction of apoptosis in human NCI-H460 cells assessed as necrotic cells at 0.2 uM after 24 hrs by Annexin V-FITC/propidium iodide staining-based flow cytometric analysis relative to control; assay type: functional
[11] = biological target: Serine/threonine-protein kinase Chk2 (Homo sapiens, UniProt O96017); assay: Inhibition of CHK2 (unknown origin)
Sequence of Serine/threonine-protein kinase Chk2 (O96017 whole entry): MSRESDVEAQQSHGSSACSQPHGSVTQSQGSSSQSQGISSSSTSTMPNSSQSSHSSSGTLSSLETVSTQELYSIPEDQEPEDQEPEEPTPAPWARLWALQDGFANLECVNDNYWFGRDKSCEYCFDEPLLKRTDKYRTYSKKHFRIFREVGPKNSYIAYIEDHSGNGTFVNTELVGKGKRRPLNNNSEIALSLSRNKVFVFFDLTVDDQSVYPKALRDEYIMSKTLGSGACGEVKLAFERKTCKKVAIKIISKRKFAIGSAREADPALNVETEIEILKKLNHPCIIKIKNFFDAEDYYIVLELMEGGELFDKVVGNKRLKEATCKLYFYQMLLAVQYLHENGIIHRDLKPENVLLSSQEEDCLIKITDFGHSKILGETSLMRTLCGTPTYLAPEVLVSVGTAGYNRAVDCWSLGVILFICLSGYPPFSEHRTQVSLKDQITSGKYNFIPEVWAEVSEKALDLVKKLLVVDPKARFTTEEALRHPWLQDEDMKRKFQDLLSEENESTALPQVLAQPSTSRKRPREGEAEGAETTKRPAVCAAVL

[12] = biological target: Vascular endothelial growth factor receptor 1 (Homo sapiens, UniProt P17948); assay: Inhibition of VEGFR1 (unknown origin)
Sequence of Vascular endothelial growth factor receptor 1 (P17948 whole entry): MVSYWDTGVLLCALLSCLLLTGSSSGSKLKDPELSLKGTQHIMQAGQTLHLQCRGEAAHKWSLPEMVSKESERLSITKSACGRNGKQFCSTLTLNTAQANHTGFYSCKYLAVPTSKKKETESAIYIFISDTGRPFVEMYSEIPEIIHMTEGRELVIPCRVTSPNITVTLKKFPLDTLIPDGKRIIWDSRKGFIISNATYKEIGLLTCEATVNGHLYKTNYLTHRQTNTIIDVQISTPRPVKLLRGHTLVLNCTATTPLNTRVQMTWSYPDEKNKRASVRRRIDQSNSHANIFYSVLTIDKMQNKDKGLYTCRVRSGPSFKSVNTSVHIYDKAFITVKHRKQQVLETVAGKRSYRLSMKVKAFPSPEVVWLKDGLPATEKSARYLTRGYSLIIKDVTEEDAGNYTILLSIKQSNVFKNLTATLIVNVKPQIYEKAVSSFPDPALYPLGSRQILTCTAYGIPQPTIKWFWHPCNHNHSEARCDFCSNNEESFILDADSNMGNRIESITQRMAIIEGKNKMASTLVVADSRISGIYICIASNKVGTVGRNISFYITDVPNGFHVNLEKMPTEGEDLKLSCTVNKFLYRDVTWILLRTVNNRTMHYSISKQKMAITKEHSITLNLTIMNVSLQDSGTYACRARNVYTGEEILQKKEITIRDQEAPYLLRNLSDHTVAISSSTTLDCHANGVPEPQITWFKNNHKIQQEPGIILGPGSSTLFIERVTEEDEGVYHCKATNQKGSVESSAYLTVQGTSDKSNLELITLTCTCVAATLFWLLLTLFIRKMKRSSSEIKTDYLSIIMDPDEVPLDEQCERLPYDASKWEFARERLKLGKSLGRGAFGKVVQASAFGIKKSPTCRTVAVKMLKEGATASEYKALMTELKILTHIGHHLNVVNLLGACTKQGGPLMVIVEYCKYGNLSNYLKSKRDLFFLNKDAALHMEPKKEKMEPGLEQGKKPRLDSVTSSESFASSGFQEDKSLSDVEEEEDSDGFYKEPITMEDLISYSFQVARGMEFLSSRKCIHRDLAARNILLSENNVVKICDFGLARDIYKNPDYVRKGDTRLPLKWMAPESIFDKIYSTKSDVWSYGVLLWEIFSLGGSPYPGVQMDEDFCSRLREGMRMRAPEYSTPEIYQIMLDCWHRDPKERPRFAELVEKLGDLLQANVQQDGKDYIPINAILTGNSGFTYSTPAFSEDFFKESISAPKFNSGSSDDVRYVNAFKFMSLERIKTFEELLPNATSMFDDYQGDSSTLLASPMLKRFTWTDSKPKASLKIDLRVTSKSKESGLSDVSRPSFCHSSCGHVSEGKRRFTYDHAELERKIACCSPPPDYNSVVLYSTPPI

In the case of COc1ccc2nc3sc(C(=O)Nc4ccc(C(=O)/C=C/c5cc(OC)c(OC)c(OC)c5)cc4)cc3cc2c1, the pIC50 (PANC-1) was 5.85, the pIC50 (NCI-H460 [1]) was 5.72 and the pIC50 (HT-29) was 5.85. For the same molecule, the pIC50 (MIA PaCa-2) was 6.00, the viability at 96 h [2] was over 91% and the pIC50 (A-375) was 5.42. It also gave a pIC50 [3] of 5.85.
COc1cc(/C=C/C(=O)c2ccc(NC(=O)c3cc4cc5cc(C)ccc5nc4s3)cc2)cc(OC)c1OC gave a pIC50 (PANC-1) of 5.66, a pIC50 (NCI-H460 [1]) of 5.49 and a pIC50 (HT-29) of 5.43. For the same molecule, the pIC50 (MIA PaCa-2) was 5.70, the viability at 96 h [2] was over 91% and the pIC50 (A-375) was 5.19. The pIC50 [3] was 5.49.
With COc1cccc(/C=C/C(=O)c2ccc(NC(=O)c3cc4cc5cc(C)ccc5nc4s3)cc2)c1 the pIC50 (PANC-1) was 5.46, the pIC50 (NCI-H460 [1]) was 5.44 and the pIC50 (HT-29) was 5.38. It also gave a pIC50 (MIA PaCa-2) of 5.43, a viability at 96 h [2] of over 91% and a pIC50 (A-375) of 4.75. It also gave a pIC50 [3] of 5.54.
In the case of O=C(/C=C/c1ccccc1)c1ccc(NC(=O)c2cc3cc4ccccc4nc3s2)cc1, the pIC50 (HT-29) was 4.83, the pIC50 (MIA PaCa-2) was 4.90 and the viability at 96 h [2] was over 91%. For the same molecule, the pIC50 (A-375) was under 4.30.
Cc1ccc2nc3sc(C(=O)Nc4ccc(C(=O)/C=C/c5ccccc5)cc4)cc3cc2c1 gave a pIC50 (PANC-1) of 5.02, a pIC50 (NCI-H460 [1]) of 5.01 and a pIC50 (HT-29) of 4.98. The pIC50 (MIA PaCa-2) was 5.04, the viability at 96 h [2] was over 91% and the pIC50 (A-375) was 4.59.
In the case of Cc1ccc2nc3sc(C(=O)Nc4ccc(C(=O)/C=C/c5ccc(Cl)cc5)cc4)cc3cc2c1, the pIC50 (PANC-1) was 5.02, the pIC50 (NCI-H460 [1]) was 5.04 and the pIC50 (HT-29) was 4.94. It also gave a pIC50 (MIA PaCa-2) of 5.03, a viability at 96 h [2] of over 91% and a pIC50 (A-375) of 4.40.
COc1cccc(/C=C/C(=O)c2ccc(NC(=O)c3cc4cc5ccccc5nc4s3)cc2)c1 gave a pIC50 (PANC-1) of 5.17, a pIC50 (NCI-H460 [1]) of 5.01 and a pIC50 (HT-29) of 5.03. For the same molecule, the pIC50 (MIA PaCa-2) was 5.21, the viability at 96 h [2] was over 91% and the pIC50 (A-375) was 4.55.
Molecule COc1cc(/C=C/C(=O)c2ccc(NC(=O)c3cc4cc5ccccc5nc4s3)cc2)cc(OC)c1OC has a pIC50 (PANC-1) of 5.85, a pIC50 (NCI-H460 [1]) of 5.57 and a pIC50 (HT-29) of 5.60. For the same molecule, the pIC50 (MIA PaCa-2) was 5.77, the viability at 96 h [2] was over 91% and the pIC50 (A-375) was 5.38. The pIC50 [3] was 5.92.
In the case of COc1ccc(/C=C/C(=O)c2ccc(NC(=O)c3cc4cc5ccccc5nc4s3)cc2)cc1OC, the pIC50 (NCI-H460 [1]) was 5.92, the pIC50 (HT-29) was 5.96 and the pIC50 (MIA PaCa-2) was 6.30. It also gave a viability at 96 h [2] of over 91%, a pIC50 (A-375) of 5.62 and a pIC50 [3] of 5.80.
With COc1ccc2nc3sc(C(=O)Nc4ccc(C(=O)/C=C/c5ccc(OC)c(OC)c5)cc4)cc3cc2c1 the pIC50 (PANC-1) was 6.00, the pIC50 (NCI-H460 [1]) was 6.70 and the pIC50 (HT-29) was 6.30. For the same molecule, the pIC50 (MIA PaCa-2) was 6.10, the viability at 96 h [2] was over 91% and the pIC50 (A-375) was 5.80. It also gave a pIC50 [3] of 6.15.
Molecule COc1cccc(/C=C/C(=O)c2ccc(NC(=O)c3cc4cc5cc(OC)ccc5nc4s3)cc2)c1 has a pIC50 (PANC-1) of 5.35, a pIC50 (NCI-H460 [1]) of 5.26 and a pIC50 (HT-29) of 5.17. The pIC50 (MIA PaCa-2) was 5.31, the viability at 96 h [2] was over 91% and the pIC50 (A-375) was under 4.30. For the same molecule, the pIC50 [3] was 5.55.
In the case of O=C(/C=C/c1ccc(Cl)cc1)c1ccc(NC(=O)c2cc3cc4ccccc4nc3s2)cc1, the pIC50 (PANC-1) was 5.23, the pIC50 (NCI-H460 [1]) was 5.17 and the pIC50 (HT-29) was 5.10. The pIC50 (MIA PaCa-2) was 5.21, the viability at 96 h [2] was over 91% and the pIC50 (A-375) was 4.71.
Work on COc1ccc2nc3sc(C(=O)Nc4ccc(C(=O)/C=C/c5ccccc5)cc4)cc3cc2c1 yielded a pIC50 (PANC-1) of 5.26, a pIC50 (NCI-H460 [1]) of 5.19 and a pIC50 (HT-29) of 5.11. It also gave a pIC50 (MIA PaCa-2) of 5.23, a viability at 96 h [2] of over 91% and a pIC50 (A-375) of 4.78.
Molecule COc1ccc(/C=C/C(=O)c2ccc(NC(=O)c3cc4cc5cc(C)ccc5nc4s3)cc2)cc1OC has a pIC50 (PANC-1) of 5.92, a pIC50 (NCI-H460 [1]) of 6.05 and an Activity (NCI-H460 [4]) of 44.24%. For the same molecule, the pIC50 (HT-29) was 6.00, the Activity (NCI-H460 [5]) was 15.72% and the pIC50 (MIA PaCa-2) was 6.05. It also gave a viability at 96 h [2] of over 91%, an Activity (NCI-H460 [6]) of 38.31% and an Activity (NCI-H460 [7]) of 7.22%. The pIC50 (A-375) was 5.70, the Activity (NCI-H460 [8]) was 17.45% and the Activity (NCI-H460 [9]) was 9.08%. For the same molecule, the pIC50 [3] was 6.30 and the Activity (NCI-H460 [10]) was 2.31%.
CCCCNc1ncnc2c1sc1nc3ccccc3cc12 showed a pIC50 [11] of 5.77 and a pIC50 [12] of 6.27.
COc1ccc2nc3sc(C(=O)Nc4ccc(C(=O)/C=C/c5ccc(Cl)cc5)cc4)cc3cc2c1 showed a pIC50 (PANC-1) of 4.86, a pIC50 (NCI-H460 [1]) of 4.91 and a pIC50 (HT-29) of 4.76. For the same molecule, the pIC50 (MIA PaCa-2) was 4.84, the viability at 96 h [2] was over 91% and the pIC50 (A-375) was 4.35.
